{"source": "paper PMC11050087", "about": "“Polyphenols from Maackia amurensis Heartwood Protect Neuronal Cells from Oxidative Stress and Prevent Herpetic Infection” (International Journal of Molecular Sciences, 2024)", "key": {"[1]": {"assay": "Cytotoxicity against Vero cells (MTT assay)", "type": "cell-based", "conditions": "African green monkey", "description": "We prepared the stock solutions of the tested compounds (10 mg/mL) in DMSO (Sigma, St. Louis, MO, USA). For the MTT assay and further studies of anti-HSV-1 activity, we diluted the stock solutions with DMEM so that the final concentration of DMSO was 0.5%.\nWe used MTT assay to determine the cytotoxic effect of the tested compounds against Vero cells. We performed the MTT assay as previously described."}, "[2]": {"test_system": "HSV-1", "assay": "Virucidal activity, CPE inhibition assay (HSV-1 pretreated with compounds)", "type": "cell-based, HSV-1 strain L2", "description": "The antiviral activity of polyphenols from M. amurensis against HSV-1 was assessed using the cytopathic effect inhibition (CPE) assay. To study the inhibitory effect of polyphenolic compounds directly on the HSV-1 virus (direct virucidal activity), the monolayer of Vero cells grown on 96-well plates (1 × 10^4 cells/well) was infected with the virus (100 TCD50/mL), pretreated with different concentrations of polyphenolic compounds.\n(§1) The HSV-1 strain L2 obtained from N.F. Gamaleya Federal Research Centre for Epidemiology and Microbiology (Moscow, Russia) was grown in Vero cells as previously described.\n(§2) We determined the direct inhibitory effect of polyphenolic compounds from M. amurensis heartwood on HSV-1 (virucidal effect). We mixed the virus at an infectious dose (100 TCID50/mL) with polyphenolic compounds (from 0.1 to 100 µg/mL) at a ratio of 1:1 (v/v) and incubated for an hour at 37 °C. Then, we infected the monolayer of Vero cells grown on 96-well plates (1 × 10^4 cells/well) with HSV-1 pretreated with the studied compounds. After 1 h adsorption at 37 °C, the cells were washed with phosphate-buffered saline (PBS) and overlaid by the maintenance medium with 1% FBS. The plates were incubated for 72 h at 37 °C in a CO2-incubator. The cytopathic effect (CPE) inhibition assay and real-time reverse transcription-PCR (RT-PCR) assay were used to evaluate virucidal effect of the tested compounds.\nWe previously described this method in detail in [22]. We performed the MTT assay to evaluate the antiviral activity of polyphenolic compounds. The viral inhibition rate (IR, %) was calculated according to Equation (1):(1) IR, %=Atv−Acv/Acd−Acv×100, where Atv is the absorbance of cells infected with HSV-1 pretreated with the studied compounds,\nWe calculated the selectivity index (SI) as the ratio of CC50 to IC50. Experiments were repeated three times."}, "[3]": {"test_system": "HSV-1", "assay": "Virucidal activity, RT-PCR assay (HSV-1 pretreated with compounds)", "type": "cell-based, HSV-1 strain L2", "conditions": "for Ct: 72 h; for −ΔCt: vs virus control", "description": "Vero cells grown on 96-well plates were infected with the virus (100 TCID50/mL), pretreated with polyphenolic compounds at concentrations 0.1, 1 and 10 μg/mL. After 72 h of cell incubation, viral DNA was extracted from the supernatants, and the relative level of HSV-1 DNA was determined using RT-PCR. The effect of polyphenols on the relative level of viral DNA was assessed using the 2^−∆Ct method and reported as fold reduction compared to virus control.\nas §1, §2\nWe performed the RT-PCR assay as we previously described in detail in [22]. Briefly, HSV-1 DNA was extracted after incubation from cell supernatants by using the DNA-sorb-AM (K1-12-100-CE) nucleic acid extraction kit (AmpliSens®, Moscow, Russia) according to the manufacturer′s instructions. We treated the supernatants with a lysis solution that contained guanidine chloride (chaotropic agent) in the presence of sorbent (silica particles). As the elution solution was added, the DNA was […] silica particles and separated from the sorbent particles by centrifugation.\nWe detected the DNA of HSV-1 in the obtained samples using the AmpliSens® HSV I, II-FRT-100F PCR kit (AmpliSens®, Moscow, Russia) on a real-time PCR instrument Rotor-Gene Q (Qiagen, Hilden, Nordrhein-Westfalen, Germany) according to the manufacturer′s instructions. The PCR reaction conditions were the following: initial denaturation at 95 °C for 15 min; then 5 cycles at 95 °C for 5 s, at 60 °C for 20 s, at 72 °C for 15 s; then 40 cycles at 95 °C for 5 s, at 60 °C for 20 s, and at 72 °C for 15 s. A negative sample was used as the amplification control for each run. The threshold cycle number Ct, was measured as the PCR cycle, where the amount of the amplified target reached the threshold value; the Ct values ≥ 37 indicated the absence of the HSV-1 DNA in the samples. We assessed the anti-HSV-1 activity of the studied compounds by the reduction in the viral DNA levels using the 2^−ΔCt method according to Equation (2):(2) ΔCt=Ctcv−Cttv where Ct is the threshold cycle number measured as the PCR cycle, where the amount of the amplified target reached the threshold value, […]"}, "[4]": {"test_system": "6-OHDA-treated Neuro-2a cells", "assay": "ROS analysis in 6-OHDA-treated cells (H2DCF-DA)", "type": "cell-based, murine", "conditions": "compound 1 µM; 6-OHDA 120 µM", "description": "We studied the effect of polyphenolic compounds set on ROS levels in 6-OHDA-treated Neuro-2a cells (Figure 5a–d).\nFigure 5 The effect of polyphenolic compounds isolated from M. amurensis heartwood on ROS levels in Neuro-2a cells treated with 6-OHDA (120 μM) (a–d). Polyphenolic compounds isolated from M. amurensis heartwood were used at concentrations 10, 1, 0.1 μM. The data are presented as means ± SEM of three independent replicates.\nAfter 24 h of adhesion, Neuro-2a cells (5 × 10^4 cells/mL) were incubated with polyphenolic compounds at concentrations of 0.1, 1, and 10 µM for 1 h. Then, 120 µM of 6-OHDA or 1 mM of PQ were added to each well, and cells were incubated for 1 h. To study the ROS formation, 20 µL of 2,7-dichlorodihydrofluorescein diacetate solution (H2DCF-DA, Sigma-Aldrich, St. Louis, MO, USA) were added to each well, so that the final concentration was 10 µM. Then, the microplate was incubated for 30 min at 37 °C."}, "[5]": {"test_system": "6-OHDA-treated Neuro-2a cells", "assay": "6-OHDA-induced neurotoxicity model, cell viability test (MTT)", "type": "cell-based, murine", "conditions": "compounds at 10, 1, 0.1 µM; 6-OHDA 100 µM", "description": "Neuro-2a cells were incubated with the studied polyphenolic compounds for 1 h. Then, 100 µM of 6-hydroxydopamine 6-OHDA were added. We determined the percentage of living Neuro-2a cells after treatment with 6-OHDA (Figure 4a–d).\nFigure 4 The effect of polyphenolic compounds isolated from M. amurensis heartwood on the viability of Neuro-2a cells treated with 6-OHDA (100 μM) (a–d). The viability of Neuro-2a cells treated with various compounds and 6-OHDA was measured by the MTT assay. Polyphenolic compounds isolated from M. amurensis heartwood were used at concentrations 10, 1, 0.1 μM. The data are presented as means ± SEM of three independent replicates. (*) indicate p < 0.05 versus 6-OHDA-treated cells.\nAfter 24 h of adhesion, Neuro-2a cells (5 × 10^4 cells/mL) were treated with polyphenolic compounds at concentrations of 0.1, 1 and 10 μM for 1 h. Then, 100 µM of 6-OHDA or 1 mM of PQ (Sigma-Aldrich, St. Louis, MO, USA) were added. Cells incubated without inductors or with inductors were used as positive and negative control, respectively. Cell viability was measured after 24 h using the MTT assay."}, "[6]": {"conditions": "Human alphaherpesvirus 1, 72 h, read-out: 2^−ΔCt"}, "[7]": {"conditions": "Human alphaherpesvirus 1, 72 h, read-out: log10"}}, "note": "Several values for one entry are separate records, joined by “and”; a condition that tells them apart may be missing. Equal values may be shown once.", "data": [{"molecule": "COc1ccc(-c2coc3c4c(ccc3c2=O)O[C@@H](c2cc(O)cc(O)c2)[C@H](c2ccc(O)c(O)c2)O4)cc1", "note": "[Compound 10, maackiazin]", "values": [{"measurement": "CC50", "setting": "[1]", "result": "156 µg/mL and 297 µM"}, {"measurement": "IC50", "setting": "[2]; Human alphaherpesvirus 1, virus pretreated with compound (virucidal), CPE assay, Vero cells, 100 TCID50/mL", "result": "6.6 µg/mL and 12.5 µM"}, {"measurement": "SI", "setting": "[2]; ratio of CC50 to IC50, virucidal scheme", "result": "23.7 ± 3.1"}, {"measurement": "Ct", "setting": "[3]; 0.1 µg/mL", "result": "18.4 ± 2.4"}, {"measurement": "−ΔCt", "setting": "[3]; 0.1 µg/mL", "result": "−0.300 ± 0.03"}, {"measurement": "Ct", "setting": "[3]; 1 µg/mL", "result": "20.2 ± 2.6"}, {"measurement": "−ΔCt", "setting": "[3]; 1 µg/mL", "result": "−2.1 ± 0.3"}, {"measurement": "anti-HSV-1 activity by RT-PCR (in words)", "setting": "[3]; 10 µg/mL", "result": "significantly reduced the level of viral DNA"}, {"measurement": "Ct", "setting": "[3]; 10 µg/mL", "result": "28.0 ± 3.9"}, {"measurement": "−ΔCt", "setting": "[3]; 10 µg/mL", "result": "−9.9 ± 1.1"}, {"measurement": "activity at 0.1 µg/mL", "setting": "[3]; [6]", "result": "81.2 ± 11", "unit": "%"}, {"measurement": "activity at 1 µg/mL", "setting": "[3]; [6]", "result": "23.3 ± 3", "unit": "%"}, {"measurement": "activity at 10 µg/mL", "setting": "[3]; [6]", "result": "0.105 ± 0.01", "unit": "%"}, {"measurement": "log reduction at 0.1 µg/mL", "setting": "[3]; [7]", "result": "0.09 ± 0.01"}, {"measurement": "log reduction at 1 µg/mL", "setting": "[3]; [7]", "result": "0.6 ± 0.08"}, {"measurement": "log reduction at 10 µg/mL", "setting": "[3]; [7]", "result": "2.9 ± 0.4"}, {"measurement": "reduction of ROS levels in 6-OHDA-treated Neuro-2a cells", "setting": "[4]", "result": 20, "unit": "%"}, {"measurement": "effect on viability of 6-OHDA-treated Neuro-2a cells (in words)", "setting": "[5]", "result": "weak effect on cell viability"}]}]}
